From patent US10098888B2, “Substituted benzene compounds” (Epizyme, Inc., priority 2012, dated 2018)
Where two headings read alike, the source gives them in different places.

How the values were obtained:
[1] = tested on: human cytochromes P450 (CYP); assay: Assessment of CYP inhibition, overall conclusion on reversible inhibition; conditions: human liver microsomes
[2] = tested on: CYP2B6; assay: CYP induction in cryopreserved human hepatocytes, CYP2B6; conditions: 1 μm, 48 hours, positive control phenobarbital
[3] = tested on: Karpas-422 xenograft; assay: Efficacy study in Karpas-422 xenograft model; type: in vivo; conditions: mice, p.o. BID, up to 28 days
Protocol: (§1) The animals were fed ad libitum water (reverse osmosis 1 ppm Cl) and NIH 31 Modified and Irradiated Lab Diet® consisting of 18.0% crude protein, 5.0% crude fat, and 5.0% crude fiber. The mice were housed on irradiated Enrich-o'cobs™ bedding in static microisolators on a 12-hour light cycle at 20-22° C. (68-72° F.) and 40-60% humidity. Alf procedures complied with the recommendations of the Guide for Care and Use of Laboratory Animals with respect to restraint, husbandry, surgical procedures, feed and fluid regulation, and veterinary care.
Human lymphoma cell lines line were obtained from different sources (ATCC, DSMZ), e.g., Karpas-422 obtained from DSMZ. […]
Human lymphoma cell lines, e.g., Karpas-422 cells, were harvested during mid-log phase growth, and re-suspended in […] base media and 50% Matrigel™ (BD Biosciences) (RPMI:Matrigel=1:1). […] Tumor size, in mm^3, was calculated from: […]
(§2) Mice were treated at compound doses ranging from 62.5-500 mg/kg on a BID (2 times a day every 12 h) schedule for various amounts of days by oral gavage. Each dose was delivered in a volume of 0.2 mL/20 g mouse (10 mL/kg), and adjusted for the last recorded weight of individual animals. […]
Treatment efficacy was determined on the last treatment day, MTV(n), the median tumor volume for the number of animals, n, evaluable on the last day, was determined for each group. […]

[4] = tested on: CYP1A; assay: CYP induction in cryopreserved human hepatocytes, CYP1A; conditions: 48 hours, positive control β-naphthoflavone
[5] = tested on: CYP3A4/5; assay: Time-Dependent Inactivation (TDI) assessment of CYP3A4/5; type: in vitro ADME, human; conditions: for inactivation of CYP3A4/5 (conclusion in words): using midazolam as probe
[6] = Tolerability in Karpas-422 xenograft tumor bearing mice (body weight); type: in vivo; conditions: Karpas-422 xenograft mice, p.o. BID, up to 28 days
Protocol: as §1
Test compounds were stored at room temperature and protected from light. On each treatment day, fresh compound formulations were prepared by suspending the powders in 0.5% sodium carboxymethylcellulose (NaCMC) and 0.1% Tween® 80 in deionized water. […]
as §2
In order to test whether a compound could induce an anti-tumor effect in vivo, Karpas-422 xenograft tumor bearing mice were treated with a compound at, e.g., 62.5, 125, 250, or 500 mg/kg BID for 28 days. […] The tumor growth over the treatment course of 28 days for vehicle and test compound treated groups was measured.

[7] = tested on: WSU-DLCL2 cells; assay: Cell Proliferation Analysis (WSU-DLCL2, Cell Titer Glo); type: cell-based; conditions: Homo sapiens, WSUDLCL2, 6 days
[8] = pH 7.4, probe testosterone, time-dependent inactivation of CYP3A4/5, human liver microsomes, read-out: KI

Structure (SMILES)	reversible CYP inhibition (conclusion in words) [1]	CYP2B6 % Positive Control [2]	antitumor effect in Karpas-422 xenograft model [3]	CYP1A % Positive Control ([4]; 1 μm)	CYP1A % Positive Control ([4]; 10 μm)	Ki ([5]; human, human liver microsomes, pH 7.4, time-dependent inactivation of CYP3A4/5, footnote ** not given, read-out: KI (value in parentheses marked **))	Ki [5, 8]	inactivation of CYP3A4/5 (conclusion in words) [5]	tolerability [6]	IC50 [7]
CCN(c1cc(-c2ccc(OCCOC)cc2)cc(C(=O)NCc2c(C)cc(C)[nH]c2=O)c1C)[C@H]1CC[C@H](N(C)C)CC1 [Compound 1, N-((4,6-dimethyl-2-oxo-1,2-dihydropyridin-3-yl)methyl)-5-(((trans)-4-(dimethytamino)-cyclohexyl)(ethyl)-amino)-4′-(2-methoxyethoxy)-4-methyl-[1,1′-biphenyl]-3-carboxamide]	no significant reversible inhibition	18.0%	tumor stasis and regression	2.8%	3.0%	3.3 µM	6.4 µM	time-, concentration-, and NADPII-dependent inactivation of CYP3A4/5	well tolerated	–
CCN(c1cc(C#CCN2CCOCC2)cc(C(=O)NCc2c(C)cc(C)[nH]c2=O)c1C)[C@H]1CC[C@H](N(C)CCOC)CC1 [Compound 2, N-((4,6-dimethyl-2-oxo-1,2-dihydropyridin-3-yl)methyl)-3-(ethyl((trans)-4-((2-methoxyethyl)(methyl)amino)cyclohexyl)amino)-2-methyl-5-(3-morpholinoprop-1-yn-1-yl)benzamide]	no significant reversible inhibition	–	–	–	–	–	22.3 µM	time-, concentration-, and NADPII-dependent inactivation of CYP3A4/5	–	0.385 µM
CCN(c1cc(C#CC2CCN(C)CC2)cc(C(=O)NCc2c(C)cc(C)[nH]c2=O)c1C)C1CCOCC1 [Compound 105, N-((4,6-Dimethyl-2-oxo-1,2-dihydropyridin-3-yl)methyl)-3-(ethyl(tetrahydro-2H-pyran-4-yl)amino)-2-methyl-5-((1-methylpiperidin-4-yl)ethynyl)benzamide]	potentially significant inhibition of CYP2D6 and CYP3A4 (midazolam)	–	–	3.0%	4.4%	–	10.2 µM	time-, concentration-, and NADPII-dependent inactivation of CYP3A4/5	–	–
